Test results: patent US10806717B2, “Methods and compositions for improving cognitive function” (The Johns Hopkins University, priority 2013, dated 2020)
Entries after “also recorded” stand apart in the source; their conditions may differ.

Legend:
[1] = system: aMCI subjects; assay: fMRI activity of medial temporal lobe subregions during memory judgments; assay type: in vivo, human
[2] = system: Age-Impaired (AI) Long-Evans rats; assay: Morris Water Maze retention trial, levetiracetam i.p.; assay type: in vivo, rat
Experimental: The MWM apparatus consists of a large, circular pool (diameter 1.53 m; height, 0.58 m) filled with water (27° C.) that is made opaque through the addition of non-toxic pigment or some other substance. In the typical “hidden platform” version of the test, rats are trained to find a camouflaged white escape platform (height, 34.5 cm) that is positioned in the center of one quadrant of the maze about 1.0 cm below the water surface. This platform can be retracted to the bottom of the tank or raised to its normal position from outside the maze during behavioral testing. The location of the platform remains constant from trial to trial. Because there are no local cues that mark the position of the platform, the rat's ability to locate it efficiently from any starting position at the perimeter of the pool depends on using information surrounding the maze. The maze is surrounded by black curtains to which white patterns are affixed to provide a configuration of spatial cues. A second platform (height 37.5 cm), with its surface painted black is elevated 2 cm above the water surface during cue training to control for factors unrelated to cognition. The behavior of a rat in the pool is recorded by a camera that is suspended 2.5 m above the center of the pool. The camera is connected to a video tracking system (HVS Image Advanced Tracker VP200) and a PC computer running HVS software developed by Richard Baker of HVS Image, Hampton, UK. Six Age-Impaired (AI) Long-Evans rats (as characterized above) were tested for their memory of new spatial information in the MWM, under different drug/control treatment conditions (vehicle control and two different dosage levels of levetiracetam). The MWM protocol was substantially the same as the one described in Example 1. Specifically for this study, a retention trial was performed after the training trials, as described below. AI rats were given six training trials per training day with a 60-sec inter-trial interval between each training trial for two consecutive days. […]

[3] = cited from earlier work
[4] = system: aMCI subjects; parameters: species or system human; conditions: in vivo
[5] = system: aged-impaired (AI) rats; assay: Radial Arm Maze task with one-hour delay, levetiracetam and/or valproate; assay type: in vivo, rat; conditions: for effective in reducing the number of errors: levetiracetam on its own
[6] = system: somatostatin in DG hilus; assay: Immunohistochemistry of SOM-immunoreactive hilar neurons after chronic levetiracetam; assay type: in vivo, rat; conditions: levetiracetam 10 mg/kg/day, osmotic minipumps, four weeks, aged-impaired rats; AI-LEV vs AI-VEH p<0.01
[7] = levetiracetam 10 mg/kg/day i.p.

## CC[C@@H](C(N)=O)N1CCCC1=O [levetiracetam, (2S)-2-(2-oxopyrrolidin-1-yl)butanamide]
[1]; levetiracetam 62.5 mg BID for two weeks, N=20
  DG/CA3 hyperactivity during memory judgments: does not significantly reduce
[1]; levetiracetam 125 mg twice a day for two weeks vs placebo
  entorhinal cortex (EC) activity during memory judgments: increases EC activity
[1]; levetiracetam 125 mg twice a day for two weeks vs placebo, p=0.037
  DG/CA3 activity during lure stimuli correctly identified as similar: reduces DG/CA3 hyper-activity
[1]; levetiracetam 250 mg BID for two weeks, N=17
  DG/CA3 hyperactivity during memory judgments: does not significantly reduce
[2]; levetiracetam 5 mg/kg/day i.p.
  memory performance (time in target quadrant) compared to vehicle: did not significantly improve
[2]; [7]
  memory performance (time in target quadrant) compared to vehicle: significantly improved memory
  time spent in the target annulus: effectivness of the 10 mg/kg/day levetiracetam treatment was also seen
[3]; after oral administration
  absorption: rapidly and almost completely absorbed
[3]; elderly, due to decreased renal function
  Plasma half-life expected in elderly: 9 to 10 h
[3]; following oral administration
  time of peak plasma concentrations: about 1 hour
[3]; in vivo
  Plasma half-life: approximately 7±1 hour
[3]; multiple twice-daily dosing
  time to steady state: 2 days
[3]; oral
  effect of food on bioavailability: not affected by food
[4]
  performance in Buschke Selective Reminding Test-Delayed Recall, Benton Visual Retention Test, Verbal Paired Associates Test-Recognition and -Delayed Recall: fail to rescue performance
[5]; AI rats, given acutely
  effective doses in the animal model: 5 to 10 mg/kg
[5]; levetiracetam 20 mg/kg
  performance of AI rats in the radial maze task: fails to improve the performance
[5]; 1.25 mg/kg or 2.5 mg/kg i.p.
  effective in reducing the number of errors: not
[5]; 5-10 mg/kg i.p.
  effective in reducing the number of errors: effective
[6]
  levels of somatostatin (SOM-immunoreactive hilar neurons) in DG hilus: restores the levels of somatostatin; also recorded: restores sematostatin
